Data published in US20250041284A1, “TREATMENT OF NEUROLOGICAL DISORDERS” (Praxis Precision Medicines, Inc., priority 2022, published 2025).
“Also recorded” adds a separate entry of the source.

Tests used:
[1] = tested on: psychomotor seizures induced by 6-Hz electrical stimulation in wild-type CD-1 mice; test: 6-Hz psychomotor seizure model; type: in vivo, mouse; parameters: EC50 value, protection from psychomotor seizures: unit not given here
Text: This study evaluated the efficacy of Compound 1 in attenuating psychomotor seizures induced by 6-Hz electrical stimulation at two different stimulation intensities (32 and 44 mA) in wild-type CD-1 mice. Psychomotor seizures are defined as the expression of at least one of the following behaviors: stun/immobility, forelimb clonus, straub tail or lateral head movement within 30 seconds of the stimulus. Protection is defined as a complete absence of the above behaviors within 30 seconds of the stimulus. Doses of Compound 1 used were 1 mg/kg, 3 mg/kg and 6 mg/kg administered orally. Valproate (600 mg/kg, administered intraperitoneally) was used as a positive control.
Male CD-1 mice (Charles River Laboratories; St. Constant, Quebec, CAN) were used for the study. Body weights at the time the experiment was carried out were 30-40 grams. The mice were group-housed in polycarbonate cages according to standard operating procedures. Animals were maintained on a 12-hour light/12 hour dark cycle, with all experimental activities occurring during the light phase. Food and water were available ad libitum. Mice acclimated to the test facility for at least 72 hours prior to testing.
Treatment was conducted using Compound 1 and 35% 2-hydroxypropyl-β-cyclodextrin (35% HPBCD, used as a negative control). Compound 1 stock solution was prepared fresh each experiment day in 35% HPBCD. […] Valproate was prepared fresh each experiment day in a vehicle of saline and dosed at 10 mL/kg.
Mice were administered vehicle (35% HPBCD), a single dose of Compound 1 (1 mg/kg, 3 mg/kg or 6 mg/kg) or valproate (600 mg/kg). Vehicle and Compound 1 were administered via oral gavage 30 minutes prior to […]. Valproate was administered as an intraperitoneal injection 60 minutes prior to the electrical stimulus.
Immediately prior to conducting the 6-Hz seizure test, a brief neurological assessment was performed. Each animal was visually assessed and received a score from 0 to 3 according to the following scoring system::neurological score of 0 corresponds to a normal status; neurological score of 1 corresponds to a modest decrease in spontaneous activity; neurological score of 2 corresponds to a marked decrease in spontaneous activity; and neurological score of 3 corresponds to loss of righting reflex.
Corneal electrodes moistened with saline (ECT unit 57800; Ugo Basile) were used to deliver the electrical stimulus (6-Hz, 0.2 millisecond pulse width, 3 seconds duration). The current delivered was either 32 mA or 44 mA. Immediately after the electrical stimulus, each mouse was monitored continuously for 30 seconds by an observer blinded to the treatment group. […] Mice were scored for the presence or absence of each seizure behavior, with a maximum total score of 4. […] At the end of the 6-Hz seizure test, plasma and brain samples were collected.
Mice were anesthetized with isoflurane, whole blood was collected via cardiac puncture and brains were harvested. Whole blood was collected in potassium EDTA tubes and centrifuged at ˜3300 g for 5 minutes at 4° C. to isolate plasma. Plasma and brain samples were stored at −80° C. and analyzed to determine levels of Compound 1.
All statistical analyses were conducted using GraphPad Prism 9.3. Seizure scores were compared using Kruskal-Wallis test, followed by Dunn's post hoc and p<0.05 was considered statistically significant.

[2] = Phase 1 clinical trial, single ascending dose (Part A), healthy volunteers; type: in vivo, human; conditions: healthy participants, single oral doses up to 45 mg
Text: This is a trial to assess the safety, tolerability, pharmacokinetics (PK), and pharmacodynamics (PD) of Compound 1 in healthy participants aged 18 to 55 years (inclusive). The trial is initially comprised of 2 parts, with 1 additional optional part, as follows: • Part A is randomized, double-blinded, and placebo-controlled. Part A is designed to investigate the safety, PK, and PD of single ascending doses of Compound 1. • Part B is randomized, double-blinded, and placebo-controlled. Part B is designed to investigate the safety, PK, and PD of multiple ascending doses (selected based on the results from Part A) of Compound 1. • Part C (optional) is a randomized, open-label, crossover design food effect evaluation to investigate the PK of a single dose (selected based on the results from Part A) of Compound 1 in the fasted and fed state.
Safety and tolerability assessments for Parts A, B, and C will include vital signs, 12-lead ECGs, physical examinations, clinical laboratory tests, and the C-SSRS (for Part B).
Healthy participants will be enrolled to receive single ascending oral doses of Compound 1 or placebo on Day 1. FIG. 14A is an illustration of the dosing scheme for Part A (single ascending dose) of the trial. Dose escalation in Part A will initially be conducted in up to a total of 4 planned cohorts (Cohorts A1 to A4). Following completion of Cohort A4, up to an additional 3 escalation cohorts may be added. […] Doses may be adjusted upward or downward based on safety, tolerability, and PK data from the preceding cohorts. Cohorts after A4 will be numbered sequentially (A5, A6, etc.). […]
Compound 1 will be administered to Cohort A1 participants at the starting dose of 5 mg. […] The safety and tolerability of each sentinel participant will be monitored until Day 2 and will be reviewed prior to dosing the remainder of participants in the cohort. […]
Cohorts will be dosed in an escalating order. […] If the current dose level is determined to be safe and tolerated by the SRC, the next dose cohort will be randomized to receive the selected dose of active Compound 1 or placebo. […]

CCOC(F)(F)c1nnc2ccc(-c3cnc(OCC(F)(F)F)c(F)c3)cn12 [Compound 1]
seizure score ([1]; 6 mg/kg orally, 32 and 44 mA): significantly reduced the seizure score; also recorded: reduced seizure scores
neurological scores before 6-Hz test ([1]; 1, 3, 6 mg/kg orally): all neurological scores were zero; also recorded: Neurological scores for all doses of Compound 1 tested were normal
Plasma EC50 ([1]; 32 mA, 95% confidence interval in parentheses): 385 (383-386) ng/mL
Plasma EC50 ([1]; 44 mA): >441 ng/mL
ED50 ([1]; Mus musculus, dose-response curve, read-out: ED50 value, protection from psychomotor seizures): 1.9 mg/kg
EC50 value, protection from psychomotor seizures ([1]; plasma concentration-response curve): 147
most frequently reported TEAEs [2]: headache and fatigue
safety and tolerability [2]: safe and generally well tolerated
severity of treatment-emergent adverse events (TEAEs) [2]: mild in severity
